Source: ChEMBL document CHEMBL5726444, “Pyrazole derivative” (2017)

Target: cAMP and cAMP-inhibited cGMP 3',5'-cyclic phosphodiesterase 10A (Homo sapiens, UniProt Q9Y233)
Experiment: Phosphodiersterase Evaluation Assay: IMAP TR-FRET Phosphodiersterase Evaluation Assay Kit (Molecular Device) was used for the measurement. Ten μL of a diluted test compound having each concentration and 5 μL of the enzyme PDE10 (BPA Bioscience) that had been diluted to 2 ng/mL with 1×IMAP Reaction Buffer (prepared with 5×included with the kit, 10 mM Tris-HCl, pH=7.2, 10 mM MgCl2, 0.05% NaN3, and 0.1% BSA) containing 0.1% BSA were added to a 384-well plate (Corning). The obtained mixture was then pre-incubated at room temperature for 5 minutes. Thereafter, 5 μL of cAMP substrate solution which was included with the kit and diluted to 400 nM with 1×IMAP Reaction Buffer containing 0.1% BSA, was added to the reaction solution, and the obtained mixture was reacted at room temperature for 60 minutes. Thereafter, 60 μL of an IMAP TR-FRET Binding solution included with the kit was further added to the reaction solution, and the obtained mixture was then left for 3 hours or more. Subsequently, using ARVO SX (PerkinElmer), the fluorescent intensity of Terbium (Emission=490 nm) and TR-FRET (Emission=520 nm) in the reaction solution were measured at an excitation wavelength of 340 nm, so as to calculate the amount of the generated 5′-AMP. […]

Chain of cAMP and cAMP-inhibited cGMP 3',5'-cyclic phosphodiesterase 10A (Q9Y233 whole entry): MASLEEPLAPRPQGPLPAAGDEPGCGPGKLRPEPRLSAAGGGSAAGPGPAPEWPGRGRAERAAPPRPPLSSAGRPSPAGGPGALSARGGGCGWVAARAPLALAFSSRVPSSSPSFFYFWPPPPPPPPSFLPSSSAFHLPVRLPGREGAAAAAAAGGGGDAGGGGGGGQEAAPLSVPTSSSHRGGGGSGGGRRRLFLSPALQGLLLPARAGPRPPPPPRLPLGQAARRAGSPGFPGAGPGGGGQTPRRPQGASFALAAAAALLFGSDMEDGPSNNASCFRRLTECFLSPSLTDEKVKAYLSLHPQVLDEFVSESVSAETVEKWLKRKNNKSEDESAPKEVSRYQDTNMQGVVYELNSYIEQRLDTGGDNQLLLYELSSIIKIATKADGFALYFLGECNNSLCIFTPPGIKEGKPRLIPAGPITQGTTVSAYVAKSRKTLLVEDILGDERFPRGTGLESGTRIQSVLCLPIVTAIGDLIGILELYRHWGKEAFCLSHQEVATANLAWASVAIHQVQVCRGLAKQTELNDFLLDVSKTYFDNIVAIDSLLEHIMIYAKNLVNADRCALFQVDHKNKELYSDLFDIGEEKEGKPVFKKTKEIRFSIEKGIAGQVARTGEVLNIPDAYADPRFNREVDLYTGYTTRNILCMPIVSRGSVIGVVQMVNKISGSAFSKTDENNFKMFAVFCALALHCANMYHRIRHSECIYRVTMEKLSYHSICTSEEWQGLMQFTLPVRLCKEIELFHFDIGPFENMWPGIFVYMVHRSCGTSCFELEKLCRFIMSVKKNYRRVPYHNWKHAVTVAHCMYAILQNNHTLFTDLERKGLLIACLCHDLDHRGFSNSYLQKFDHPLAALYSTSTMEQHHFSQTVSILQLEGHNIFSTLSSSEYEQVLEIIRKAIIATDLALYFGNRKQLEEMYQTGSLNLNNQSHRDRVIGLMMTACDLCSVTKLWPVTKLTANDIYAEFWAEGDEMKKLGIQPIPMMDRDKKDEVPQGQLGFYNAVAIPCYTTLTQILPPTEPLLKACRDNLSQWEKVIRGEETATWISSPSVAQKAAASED

- IC50: < 5 nM
Structure (SMILES): Cc1cccc(-c2cnn(C)c2C(=O)Nc2cc3nc(N4CCC[C@@H]4C(F)(F)F)nn3cc2F)n1
